{
  "source": "patent US8476265B2",
  "about": "“Compounds-801” (AstraZeneca AB, priority 2010, dated 2013)",
  "key": {"Adrenergic β2": {"target": "T1, Adrenergic β2 (Homo sapiens, UniProt P07550)", "T1 construct": "Adherent H292 cells are removed from tissue culture flasks by treatment with Accutase™ cell detachment solution; endogenous in cells; host or cells: H292 cells", "T1 sequence (P07550 whole entry)": "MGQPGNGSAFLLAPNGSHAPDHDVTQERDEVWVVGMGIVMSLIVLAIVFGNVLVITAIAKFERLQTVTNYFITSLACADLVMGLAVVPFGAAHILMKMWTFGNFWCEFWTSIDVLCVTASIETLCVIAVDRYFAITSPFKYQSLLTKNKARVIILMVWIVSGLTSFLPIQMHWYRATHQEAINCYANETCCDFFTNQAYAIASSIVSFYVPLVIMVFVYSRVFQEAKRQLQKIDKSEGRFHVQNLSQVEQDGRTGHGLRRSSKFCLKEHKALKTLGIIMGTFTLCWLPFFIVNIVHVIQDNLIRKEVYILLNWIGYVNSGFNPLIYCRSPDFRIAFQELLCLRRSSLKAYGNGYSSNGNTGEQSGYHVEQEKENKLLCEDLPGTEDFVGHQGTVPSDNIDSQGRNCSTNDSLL", "assay": "Adrenergic β2 mediated cAMP production in H292 cells (AlphaScreen), concentration response", "assay_type": "cell-based", "details": "for EC50: 60 min, 300 μM rolipram, read-out: β2 pEC50 (converted); for β2 Intrinsic Activity: fraction relative to the maximum activity determined for formoterol", "in_short": "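Intracellular cAMP in lysates read by AlphaScreen, calibrated with cAMP standards; curves fitted for pEC50, with intrinsic activity as a fraction of formoterol's maximum. Agonist exposure 60 min at room temperature after 10 min rolipram (300 μM final), 1% DMSO, HEPES-buffered HBSS pH 7.4.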"}, "[1]": {"target": "T2, human muscarinic acetylcholine M3 receptor (Homo sapiens, UniProt P20309)", "T2 construct": "expressed in transfected cells; host or cells: CHO-K1 (Chinese Hamster Ovary) cell membranes", "T2 sequence (P20309 whole entry)": "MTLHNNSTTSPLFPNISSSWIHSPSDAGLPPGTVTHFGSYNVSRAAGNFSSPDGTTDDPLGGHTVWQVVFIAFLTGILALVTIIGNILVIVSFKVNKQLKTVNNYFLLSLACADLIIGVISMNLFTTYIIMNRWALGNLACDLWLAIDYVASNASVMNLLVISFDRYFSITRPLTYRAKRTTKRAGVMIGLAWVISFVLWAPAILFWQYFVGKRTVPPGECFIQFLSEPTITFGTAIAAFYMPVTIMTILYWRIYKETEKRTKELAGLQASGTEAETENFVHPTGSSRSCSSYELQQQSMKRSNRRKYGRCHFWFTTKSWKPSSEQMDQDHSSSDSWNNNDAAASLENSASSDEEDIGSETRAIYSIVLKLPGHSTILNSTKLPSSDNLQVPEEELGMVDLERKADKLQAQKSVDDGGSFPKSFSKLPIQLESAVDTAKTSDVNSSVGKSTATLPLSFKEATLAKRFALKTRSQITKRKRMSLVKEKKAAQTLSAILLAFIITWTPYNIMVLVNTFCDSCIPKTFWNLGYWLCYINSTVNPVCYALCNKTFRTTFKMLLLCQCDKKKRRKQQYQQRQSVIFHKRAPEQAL", "assay": "Muscarinic 3 receptor binding assay ([3H]NMS competition, SPA), pIC50", "details": "[3H]NMS 0.1 nM, CHO-K1 cell membranes expressing human M3 receptor", "in_short": "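SPA beads precoated with human M3-expressing CHO-K1 membranes were incubated 16 h at room temperature with serially diluted compound and 0.1 nM [3H]NMS (pH 7.4 HEPES buffer, MgCl2, BSA, 1% DMSO). Atropine (1 μM) defined non-specific binding; pIC50 is the 50% reduction in specific binding.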"}},
  "data": [
    {"compound": "CC(C)c1nc(C(=O)N2CCOC3(CCN(Cc4cccc(COCCOCCC(=O)N(CCNCCc5ccc(O)c6c5OCC(=O)N6)C5CCCCC5)c4)CC3)C2)cs1", "note": "[Example 67, N-Cyclohexyl-N-(2-(2-(5-hydroxy-3-oxo-3,4-dihydro-2H-benzo[b][1,4]oxazin-8-yl)ethylamino)ethyl)-3-(2-(3-((4-(2-isopropylthiazole-4-carbonyl)-1-oxa-4,9-diazaspiro[5.5]undecan-9-yl)methyl)benzyloxy)ethoxy)propanamide ditrifluoroacetate]", "values": [
      {"measurement": "EC50", "setting": "Adrenergic β2", "value": 31.6, "unit": "nM"},
      {"measurement": "β2 Intrinsic Activity", "setting": "Adrenergic β2", "value": 0.8},
      {"measurement": "IC50", "setting": "[1]", "value": 0.251, "unit": "nM"}
    ]},
    {"compound": "CCN(CCNCCc1ccc(O)c2[nH]c(=O)sc12)C(=O)CCOCCc1cccc(CN2CCC3(CC2)CN(C(=O)c2csc(C(C)C)n2)CCO3)c1OC", "note": "[Example 68, N-Ethyl-N-(2-(2-(4-hydroxy-2-oxo-2,3-dihydrobenzo[d]thiazol-7-yl)ethylamino)ethyl)-3-(3-((4-(2-isopropylthiazole-4-carbonyl)-1-oxa-4,9-diazaspiro[5.5]undecan-9-yl)methyl)-2-methoxyphenethoxy)propanamide ditrifluoroacetate]", "values": [
      {"measurement": "EC50", "setting": "Adrenergic β2", "value": 10, "unit": "nM"},
      {"measurement": "β2 Intrinsic Activity", "setting": "Adrenergic β2", "value": 0.6},
      {"measurement": "IC50", "setting": "[1]", "value": 10, "unit": "nM"}
    ]},
    {"compound": "CCN(CCNCCc1ccc(O)c2c1OCC(=O)N2)C(=O)CCOCCc1cccc(CN2CCC3(CC2)CN(C(=O)c2csc(CC(C)C)n2)CCO3)c1F", "note": "[Example 69, N-Ethyl-3-(2-fluoro-3-((4-(2-isobutylthiazole-4-carbonyl)-1-oxa-4,9-diazaspiro[5.5]undecan-9-yl)methyl)phenethoxy)-N-(2-(2-(5-hydroxy-3-oxo-3,4-dihydro-2H-benzo[b][1,4]oxazin-8-yl)ethylamino)ethyl)propanamide ditrifluoroacetate]", "values": [
      {"measurement": "EC50", "setting": "Adrenergic β2", "value": 31.6, "unit": "nM"},
      {"measurement": "β2 Intrinsic Activity", "setting": "Adrenergic β2", "value": 0.8},
      {"measurement": "IC50", "setting": "[1]", "value": 0.251, "unit": "nM"}
    ]},
    {"compound": "COCCN(CCNCCc1ccc(O)c2c1OCC(=O)N2)C(=O)CCOCCc1cccc(CN2CCC3(CC2)CN(C(=O)c2csc(C(C)C)n2)CCO3)c1Cl", "note": "[Example 70, 3-(2-Chloro-3-((4-(2-isopropylthiazole-4-carbonyl)-1-oxa-4,9-diazaspiro[5.5]undecan-9-yl)methyl)phenethoxy)-N-(2-(2-(5-hydroxy-3-oxo-3,4-dihydro-2H-benzo[b][1,4]oxazin-8-yl)ethylamino)ethyl)-N-(2-methoxyethyl)propanamide ditrifluoroacetate]", "values": [
      {"measurement": "EC50", "setting": "Adrenergic β2", "value": 50.1, "unit": "nM"},
      {"measurement": "β2 Intrinsic Activity", "setting": "Adrenergic β2", "value": 1.0},
      {"measurement": "IC50", "setting": "[1]", "value": 0.126, "unit": "nM"}
    ]},
    {"compound": "COCCCN(CCNCCc1ccc(O)c2c1OCC(=O)N2)C(=O)CCOCCc1cccc(CN2CCC3(CC2)CN(C(=O)c2csc(C(C)C)n2)CCO3)c1Cl", "note": "[Example 71, 3-(2-Chloro-3-((4-(2-isopropylthiazole-4-carbonyl)-1-oxa-4,9-diazaspiro[5.5]undecan-9-yl)methyl)phenethoxy)-N-(2-(2-(5-hydroxy-3-oxo-3,4-dihydro-2H-benzo[b][1,4]oxazin-8-yl)ethylamino)ethyl)-N-(3-methoxypropyl)propanamide ditrifluoroacetate]", "values": [
      {"measurement": "EC50", "setting": "Adrenergic β2", "value": 50.1, "unit": "nM"},
      {"measurement": "β2 Intrinsic Activity", "setting": "Adrenergic β2", "value": 1.0},
      {"measurement": "IC50", "setting": "[1]", "value": 0.251, "unit": "nM"}
    ]},
    {"compound": "CC(C)c1nc(C(=O)N2CCOC3(CCN(Cc4cccc(CCOCCC(=O)N(CCF)CCNCCc5ccc(O)c6c5OCC(=O)N6)c4F)CC3)C2)cs1", "note": "[Example 72, 3-(2-Fluoro-3-((4-(2-isopropylthiazole-4-carbonyl)-1-oxa-4,9-diazaspiro[5.5]undecan-9-yl)methyl)phenethoxy)-N-(2-fluoroethyl)-N-(2-(2-(5-hydroxy-3-oxo-3,4-dihydro-2H-benzo[b][1,4]oxazin-8-yl)ethylamino)ethyl)propanamide ditrifluoroacetate]", "values": [
      {"measurement": "EC50", "setting": "Adrenergic β2", "value": 31.6, "unit": "nM"},
      {"measurement": "β2 Intrinsic Activity", "setting": "Adrenergic β2", "value": 0.9},
      {"measurement": "IC50", "setting": "[1]", "value": 0.126, "unit": "nM"}
    ]},
    {"compound": "CC(C)c1nc(C(=O)N2CCOC3(CCN(Cc4cccc(CCOCCC(=O)N(CCNCCc5ccc(O)c6c5OCC(=O)N6)CC(F)F)c4F)CC3)C2)cs1", "note": "[Example 73, N-(2,2-Difluoroethyl)-3-(2-fluoro-3-((4-(2-isopropylthiazole-4-carbonyl)-1-oxa-4,9-diazaspiro[5.5]undecan-9-yl)methyl)phenethoxy)-N-(2-(2-(5-hydroxy-3-oxo-3,4-dihydro-2H-benzo[b][1,4]oxazin-8-yl)ethylamino)ethyl)propanamide ditrifluoroacetate]", "values": [
      {"measurement": "EC50", "setting": "Adrenergic β2", "value": 25.1, "unit": "nM"},
      {"measurement": "β2 Intrinsic Activity", "setting": "Adrenergic β2", "value": 1.1},
      {"measurement": "IC50", "setting": "[1]", "value": 0.1, "unit": "nM"}
    ]},
    {"compound": "CCN(CCNCCc1ccc(O)c2c1OCC(=O)N2)C(=O)CCOCCc1cccc(CN2CCC3(CC2)CN(C(=O)c2csc(C(C)C)c2)CCO3)c1F", "note": "[Example 74, N-Ethyl-3-(2-fluoro-3-((4-(5-isopropylthiophene-3-carbonyl)-1-oxa-4,9-diazaspiro[5.5]undecan-9-yl)methyl)phenethoxy)-N-(2-(2-(5-hydroxy-3-oxo-3,4-dihydro-2H-benzo[b][1,4]oxazin-8-yl)ethylamino)ethyl)propanamide ditrifluoroacetate]", "values": [
      {"measurement": "EC50", "setting": "Adrenergic β2", "value": 100, "unit": "nM"},
      {"measurement": "β2 Intrinsic Activity", "setting": "Adrenergic β2", "value": 0.7},
      {"measurement": "IC50", "setting": "[1]", "value": 0.2, "unit": "nM"}
    ]},
    {"compound": "CCc1nc(C(=O)N2CCOC3(CCN(CCc4ccc(CCOCCC(=O)N(CCCCCO)CCNCCc5ccc(O)c6[nH]c(=O)sc56)cc4)CC3)C2)cs1", "note": "[Example 75, 3-(4-(2-(4-(2-Ethylthiazole-4-carbonyl)-1-oxa-4,9-diazaspiro[5.5]undecan-9-yl)ethyl)phenethoxy)-N-(2-(2-(4-hydroxy-2-oxo-2,3-dihydrobenzo[d]thiazol-7-yl)ethylamino)ethyl)-N-(5-hydroxypentyl)propanamide diformate]", "values": [
      {"measurement": "EC50", "setting": "Adrenergic β2", "value": 50.1, "unit": "nM"},
      {"measurement": "β2 Intrinsic Activity", "setting": "Adrenergic β2", "value": 0.9},
      {"measurement": "IC50", "setting": "[1]", "value": 0.501, "unit": "nM"}
    ]},
    {"compound": "CCc1nc(C(=O)N2CCOC3(CCN(CCc4ccc(CCOCCC(=O)N(CCCCCCO)CCNCCc5ccc(O)c6[nH]c(=O)sc56)cc4)CC3)C2)cs1", "note": "[Example 76, 3-(4-(2-(4-(2-Ethylthiazole-4-carbonyl)-1-oxa-4,9-diazaspiro[5.5]undecan-9-yl)ethyl)phenethoxy)-N-(2-(2-(4-hydroxy-2-oxo-2,3-dihydrobenzo[d]thiazol-7-yl)ethylamino)ethyl)-N-(6-hydroxyhexyl)propanamide diformate]", "values": [
      {"measurement": "EC50", "setting": "Adrenergic β2", "value": 50.1, "unit": "nM"},
      {"measurement": "β2 Intrinsic Activity", "setting": "Adrenergic β2", "value": 1.0},
      {"measurement": "IC50", "setting": "[1]", "value": 0.631, "unit": "nM"}
    ]},
    {"compound": "CCCCc1nc(C(=O)N2CCOC3(CCN(Cc4cccc(CCOCCC(=O)N(CC)CCNCCc5ccc(O)c6c5OCC(=O)N6)c4Cl)CC3)C2)cs1", "note": "[Example 77, 3-(3-((4-(2-Butylthiazole-4-carbonyl)-1-oxa-4,9-diazaspiro[5.5]undecan-9-yl)methyl)-2-chlorophenethoxy)-N-ethyl-N-(2-(2-(5-hydroxy-3-oxo-3,4-dihydro-2H-benzo[b][1,4]oxazin-8-yl)ethylamino)ethyl)propanamide ditrifluoroacetate]", "values": [
      {"measurement": "EC50", "setting": "Adrenergic β2", "value": 12.6, "unit": "nM"},
      {"measurement": "β2 Intrinsic Activity", "setting": "Adrenergic β2", "value": 0.8},
      {"measurement": "IC50", "setting": "[1]", "value": 3.98, "unit": "nM"}
    ]},
    {"compound": "CCN(CCNCCc1ccc(O)c2[nH]c(=O)sc12)C(=O)CCOCCc1cc(CCN2CCC3(CC2)CN(C(=O)c2csc(C(C)C)n2)CCO3)cs1", "note": "[Example 78, N-Ethyl-N-(2-(2-(4-hydroxy-2-oxo-2,3-dihydrobenzo[d]thiazol-7-yl)ethylamino)ethyl)-3-(2-(4-(2-(4-(2-isopropylthiazole-4-carbonyl)-1-oxa-4,9-diazaspiro[5.5]undecan-9-yl)ethyl)thiophen-2-yl)ethoxy)propanamide ditrifluoroacetate]", "values": [
      {"measurement": "EC50", "setting": "Adrenergic β2", "value": 12.6, "unit": "nM"},
      {"measurement": "β2 Intrinsic Activity", "setting": "Adrenergic β2", "value": 1.0},
      {"measurement": "IC50", "setting": "[1]", "value": 2.51, "unit": "nM"}
    ]},
    {"compound": "CC(C)c1nc(C(=O)N2CCOC3(CCN(Cc4cccc(CCOCCC(=O)N(CCNCCc5ccc(O)c6c5OCC(=O)N6)CC(F)(F)F)c4F)CC3)C2)cs1", "note": "[Example 79, ditrifluoroacetate]", "values": [
      {"measurement": "EC50", "setting": "Adrenergic β2", "value": 126, "unit": "nM"},
      {"measurement": "β2 Intrinsic Activity", "setting": "Adrenergic β2", "value": 1.0},
      {"measurement": "IC50", "setting": "[1]", "value": 0.126, "unit": "nM"}
    ]}
  ]
}
